Earlier results as cited in patent US20070185063A1, “Seven-membered ring nucleosides” (Idenix Pharmaceuticals, Inc., priority 2005, published 2007).

Key:
[1] = in vivo
HCV = settings: ribavirin alone
[2] = test system: human granulocyte-macrophage colony-forming (CFU-GM) activity; settings: in vitro, bone marrow cells from healthy volunteers; clinically relevant concentrations
[3] = test system: erythroid burst-forming (BFU-E) activity; settings: in vitro, bone marrow cells from healthy volunteers; clinically relevant concentrations

Structure (SMILES): O=c1[nH]c(=O)n([C@@H]2O[C@H](CO)[C@@H](O)[C@@H]2F)cc1I [fialuridine, 1,-2′-deoxy-2′-fluoro-1-β-D-arabinofuranosyl-5-iodo-uracil]
- clinical adverse events due to direct mitochondrial toxicity [1]: caused hepatic failure, pancreatitis, neuropathy, myopathy and lactic acidosis

Structure (SMILES): NC(=O)c1ncn([C@@H]2O[C@H](CO)[C@@H](O)[C@H]2O)n1 [Ribavirin, 1-β-D-ribofuranosyl-1-1,2,4-triazole-3-carboxamide]
- effect on serum levels of HCV-RNA (HCV): does not lower serum levels of HCV-RNA
- patients in whom serum amino transferase levels are reduced to normal (HCV): 40%

Structure (SMILES): Cc1cn([C@H]2C[C@H](N=[N+]=[N-])[C@@H](CO)O2)c(=O)[nH]c1=O [ZDV, zidovudine]
- concentration that directly inhibits CFU-GM activity [2]: 1 to 2 µM
- concentration that directly inhibits BFU-E activity [3]: 1 to 2 µM
